Laboratory results reported in publication PMC10011156, “Characterization of a highly conserved MUC5B-degrading protease, MdpL, from Limosilactobacillus fermentum” (Frontiers in Microbiology, 2023).

target: T1, MdpL (Mucin degrading protease from Limosilactobacillus); putative O-sialoglycoprotein endopeptidase (OSGP) (Limosilactobacillus fermentum, UniProt B2GAG0); assay: Etanercept hydrolysis, SDS-PAGE with densitometry; type: biochemical; settings: inhibitor concentration per manufacturer, not given
T1 construct: gene tsaD; C-terminal Gly-Ser-Gly linker and 6xHis tag kept
T1 sequence (B2GAG0 1-344): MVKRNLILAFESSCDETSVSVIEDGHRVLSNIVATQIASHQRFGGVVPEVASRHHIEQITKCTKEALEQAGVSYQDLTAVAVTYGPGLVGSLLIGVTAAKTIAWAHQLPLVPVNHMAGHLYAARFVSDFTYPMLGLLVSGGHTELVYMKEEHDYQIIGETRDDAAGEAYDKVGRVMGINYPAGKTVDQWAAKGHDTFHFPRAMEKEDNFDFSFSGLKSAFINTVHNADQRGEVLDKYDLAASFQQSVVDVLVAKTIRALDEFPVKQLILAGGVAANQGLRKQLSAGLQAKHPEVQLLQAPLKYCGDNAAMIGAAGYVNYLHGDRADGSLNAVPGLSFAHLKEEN

Row | Structure (SMILES) | inhibition level (%)
1 | NCCc1ccc(S(=O)(=O)F)cc1 [AEBSF] | AEBSF, ALLN, Antipain, Chymostatin, E64, Leupeptin, and Phosphoramidon completely inhibited the MdpL activity
2 | CC(C)C[C@H](NP(=O)(O)O[C@@H]1O[C@@H](C)[C@H](O)[C@@H](O)[C@H]1O)C(=O)N[C@@H](Cc1c[nH]c2ccccc12)C(=O)O [Phosphoramidon] | AEBSF, ALLN, Antipain, Chymostatin, E64, Leupeptin, and Phosphoramidon completely inhibited the MdpL activity
3 | CC(C)C[C@H](NC(=O)[C@@H]1O[C@H]1C(=O)O)C(=O)NCCCCNC(=N)N [E64] | AEBSF, ALLN, Antipain, Chymostatin, E64, Leupeptin, and Phosphoramidon completely inhibited the MdpL activity
4 | CC(C)C[C@H](NC(=O)[C@@H](O)[C@H](N)Cc1ccccc1)C(=O)O [Bestatin] | Bestatin, and PMSF had a moderate inhibitory effect
